One block for each compound: values may come before it.
What was measured:
[1] = Ratio of unbound brain concentration to drug level in cerebrospinal fluid in cynomolgus monkey at 1 mg/kg, sc by LC-MS/MS analysis; assay type: ADME, organism-based, Macaca fascicularis; parameters: dose 1 mg/kg, route subcutaneous; conditions: in vivo
[2] = Unbound fraction in cynomolgus monkey brain at 1 mg/kg, sc by LC-MS/MS analysis; assay type: ADME, organism-based, Macaca fascicularis; parameters: dose 1 mg/kg, route subcutaneous
[3] = AUC(0 to 4 hrs) in Beagle dog brain at 1 mg/kg, sc by LC-MS/MS analysis; assay type: ADME, organism-based, Canis lupus familiaris; parameters: time < 4 hr, dose 1 mg/kg, route subcutaneous
[4] = AUC(0 to infinity) in Sprague-Dawley rat brain at 3.2 mg/kg, sc by LC-MS/MS analysis; assay type: ADME, organism-based; parameters: time infinity, dose 3.2 mg/kg, route subcutaneous
[5] = Ratio of drug level in brain to plasma in cynomolgus monkey at 1 mg/kg, sc by LC-MS/MS analysis; assay type: ADME, organism-based, Macaca fascicularis; parameters: dose 1 mg/kg, route subcutaneous; conditions: brain and plasma, read-out: BPR
[6] = AUC(0 to 2 hrs) in Sprague-Dawley rat cerebrospinal fluid at 3.2 mg/kg, sc by LC-MS/MS analysis; assay type: ADME, organism-based; parameters: time < 2 hr, dose 3.2 mg/kg, route subcutaneous
[7] = AUC(0 to 2 hrs) in cynomolgus monkey cerebrospinal fluid at 1 mg/kg, sc by LC-MS/MS analysis; assay type: ADME, organism-based, Macaca fascicularis; parameters: time < 2 hr, dose 1 mg/kg, route subcutaneous
[8] = Unbound fraction in Beagle dog plasma at 1 mg/kg, sc by LC-MS/MS analysis; assay type: ADME, organism-based, Canis lupus familiaris; parameters: dose 1 mg/kg, route subcutaneous
[9] = AUC(0 to 2 hrs) in cynomolgus monkey brain at 1 mg/kg, sc by LC-MS/MS analysis; assay type: ADME, organism-based, Macaca fascicularis; parameters: time < 2 hr, dose 1 mg/kg, route subcutaneous
[10] = system: Nucleic Acid; assay: Ratio of drug level in cerebrospinal fluid to unbound plasma concentration in cynomolgus monkey at 1 mg/kg, sc by LC-MS/MS analysis; assay type: ADME, organism-based, Macaca fascicularis; parameters: dose 1 mg/kg, route subcutaneous; conditions: in vivo
[11] = AUC(0 to 4 hrs) in Beagle dog plasma at 1 mg/kg, sc by LC-MS/MS analysis; assay type: ADME, organism-based, Canis lupus familiaris; parameters: time < 4 hr, dose 1 mg/kg, route subcutaneous
[12] = Ratio of drug level in brain to plasma in Beagle dog at 1 mg/kg, sc by LC-MS/MS analysis; assay type: ADME, organism-based, Canis lupus familiaris; parameters: dose 1 mg/kg, route subcutaneous; conditions: brain and plasma, read-out: BPR
[13] = AUC(0 to infinity) in Sprague-Dawley rat cerebrospinal fluid at 3.2 mg/kg, sc by LC-MS/MS analysis; assay type: ADME, organism-based; parameters: time infinity, dose 3.2 mg/kg, route subcutaneous
[14] = Unbound fraction in Beagle dog brain at 1 mg/kg, sc by LC-MS/MS analysis; assay type: ADME, organism-based, Canis lupus familiaris; parameters: dose 1 mg/kg, route subcutaneous
[15] = AUC(0 to 2 hrs) in Sprague-Dawley rat plasma at 3.2 mg/kg, sc by LC-MS/MS analysis; assay type: ADME, organism-based; parameters: time < 2 hr, dose 3.2 mg/kg, route subcutaneous
[16] = AUC(0 to 2 hrs) in cynomolgus monkey plasma at 1 mg/kg, sc by LC-MS/MS analysis; assay type: ADME, organism-based, Macaca fascicularis; parameters: time < 2 hr, dose 1 mg/kg, route subcutaneous
[17] = Ratio of unbound drug level in brain to plasma in cynomolgus monkey at 1 mg/kg, sc by LC-MS/MS analysis; assay type: ADME, organism-based, Macaca fascicularis; parameters: dose 1 mg/kg, route subcutaneous; conditions: brain and plasma
[18] = AUC(0 to 2 hrs) in Sprague-Dawley rat brain at 3.2 mg/kg, sc by LC-MS/MS analysis; assay type: ADME, organism-based; parameters: time < 2 hr, dose 3.2 mg/kg, route subcutaneous
[19] = system: Nucleic Acid; assay: Ratio of drug level in cerebrospinal fluid to unbound plasma concentration in Sprague-Dawley rat at 3.2 mg/kg, sc by LC-MS/MS analysis; assay type: ADME, organism-based; parameters: dose 3.2 mg/kg, route subcutaneous; conditions: in vivo
[20] = Unbound fraction in cynomolgus monkey plasma at 1 mg/kg, sc by LC-MS/MS analysis; assay type: ADME, organism-based, Macaca fascicularis; parameters: dose 1 mg/kg, route subcutaneous
[21] = Ratio of unbound brain concentration to drug level in cerebrospinal fluid in Sprague-Dawley rat at 3.2 mg/kg, sc by LC-MS/MS analysis; assay type: ADME, organism-based; parameters: dose 3.2 mg/kg, route subcutaneous; conditions: in vivo
[22] = Ratio of unbound drug level in brain to plasma in Beagle dog at 1 mg/kg, sc by LC-MS/MS analysis; assay type: ADME, organism-based, Canis lupus familiaris; parameters: dose 1 mg/kg, route subcutaneous; conditions: brain and plasma
[23] = Ratio of unbound drug level in brain to plasma in Sprague-Dawley rat at 3.2 mg/kg, sc by LC-MS/MS analysis; assay type: ADME, organism-based; parameters: dose 3.2 mg/kg, route subcutaneous
[24] = Ratio of drug level in brain to plasma in Sprague-Dawley rat at 3.2 mg/kg, sc by LC-MS/MS analysis; assay type: ADME, organism-based; parameters: dose 3.2 mg/kg, route subcutaneous; conditions: read-out: BPR
[25] = AUC(0 to infinity) in Sprague-Dawley rat plasma at 3.2 mg/kg, sc by LC-MS/MS analysis; assay type: ADME, organism-based; parameters: time infinity, dose 3.2 mg/kg, route subcutaneous
[26] = AUC(0 to infinity) in Sprague-Dawley rat cerebrospinal fluid at 10 mg/kg, sc by LC-MS/MS analysis; assay type: ADME, organism-based; parameters: time infinity, dose 10 mg/kg, route subcutaneous
[27] = AUC(0 to 7 hrs) in Sprague-Dawley rat cerebrospinal fluid at 10 mg/kg, sc by LC-MS/MS analysis; assay type: ADME, organism-based; parameters: time < 7 hr, dose 10 mg/kg, route subcutaneous
[28] = AUC(0 to 7 hrs) in Sprague-Dawley rat plasma at 10 mg/kg, sc by LC-MS/MS analysis; assay type: ADME, organism-based; parameters: time < 7 hr, dose 10 mg/kg, route subcutaneous
[29] = AUC(0 to infinity) in Sprague-Dawley rat brain at 10 mg/kg, sc by LC-MS/MS analysis; assay type: ADME, organism-based; parameters: time infinity, dose 10 mg/kg, route subcutaneous
[30] = Ratio of unbound drug level in brain to plasma in Sprague-Dawley rat at 10 mg/kg, sc by LC-MS/MS analysis; assay type: ADME, organism-based; parameters: dose 10 mg/kg, route subcutaneous
[31] = Ratio of unbound brain concentration to drug level in cerebrospinal fluid in Sprague-Dawley rat at 10 mg/kg, sc by LC-MS/MS analysis; assay type: ADME, organism-based; parameters: dose 10 mg/kg, route subcutaneous; conditions: in vivo
[32] = AUC(0 to 7 hrs) in Sprague-Dawley rat brain at 10 mg/kg, sc by LC-MS/MS analysis; assay type: ADME, organism-based; parameters: time < 7 hr, dose 10 mg/kg, route subcutaneous
[33] = Ratio of drug level in brain to plasma in Sprague-Dawley rat at 10 mg/kg, sc by LC-MS/MS analysis; assay type: ADME, organism-based; parameters: dose 10 mg/kg, route subcutaneous; conditions: read-out: BPR
[34] = AUC(0 to infinity) in Sprague-Dawley rat plasma at 10 mg/kg, sc by LC-MS/MS analysis; assay type: ADME, organism-based; parameters: dose 10 mg/kg, route subcutaneous, time infinity
[35] = system: Nucleic Acid; assay: Ratio of drug level in cerebrospinal fluid to unbound plasma concentration in Sprague-Dawley rat at 2 mg/kg, sc by LC-MS/MS analysis; assay type: ADME, organism-based; parameters: dose 2 mg/kg, route subcutaneous; conditions: in vivo
[36] = Ratio of unbound brain concentration to drug level in cerebrospinal fluid in Sprague-Dawley rat at 2 mg/kg, sc by LC-MS/MS analysis; assay type: ADME, organism-based; parameters: dose 2 mg/kg, route subcutaneous; conditions: in vivo
[37] = Ratio of drug level in brain to plasma in Sprague-Dawley rat at 2 mg/kg, sc by LC-MS/MS analysis; assay type: ADME, organism-based; parameters: dose 2 mg/kg, route subcutaneous; conditions: read-out: BPR
[38] = Ratio of unbound drug level in brain to plasma in Sprague-Dawley rat at 2 mg/kg, sc by LC-MS/MS analysis; assay type: ADME, organism-based; parameters: dose 2 mg/kg, route subcutaneous
[39] = AUC(0 to infinity) in Sprague-Dawley rat brain at 2 mg/kg, sc by LC-MS/MS analysis; assay type: ADME, organism-based; parameters: dose 2 mg/kg, route subcutaneous, time infinity
[40] = AUC(0 to infinity) in Sprague-Dawley rat cerebrospinal fluid at 2 mg/kg, sc by LC-MS/MS analysis; assay type: ADME, organism-based; parameters: time infinity, dose 2 mg/kg, route subcutaneous
[41] = AUC(0 to 2 hrs) in Sprague-Dawley rat brain at 2 mg/kg, sc by LC-MS/MS analysis; assay type: ADME, organism-based; parameters: time < 2 hr, dose 2 mg/kg, route subcutaneous
[42] = AUC(0 to 2 hrs) in Sprague-Dawley rat cerebrospinal fluid at 2 mg/kg, sc by LC-MS/MS analysis; assay type: ADME, organism-based; parameters: time < 2 hr, dose 2 mg/kg, route subcutaneous
[43] = AUC(0 to 2 hrs) in Sprague-Dawley rat plasma at 2 mg/kg, sc by LC-MS/MS analysis; assay type: ADME, organism-based; parameters: time < 2 hr, dose 2 mg/kg, route subcutaneous
[44] = AUC(0 to infinity) in Sprague-Dawley rat plasma at 2 mg/kg, sc by LC-MS/MS analysis; assay type: ADME, organism-based; parameters: time infinity, dose 2 mg/kg, route subcutaneous

Ratio [1]: 3.92
fraction unbound [2]: 0.0038
AUC(0-t) at 4 h [3]: 2260 ng·h/mL
AUC(0-inf) [4]: 5570 ng·h/mL
Kp [5]: 15
AUC(0-t) at 2 h [6]: 6.42 ng·h/mL
AUC(0-t) at 2 h [7]: 2.18 ng·h/mL
fraction unbound [8]: 0.0162
AUC(0-t) at 2 h [9]: 2250 ng·h/mL
Ratio [10]: 0.52
AUC(0-t) at 4 h [11]: 134 ng·h/mL
Kp [12]: 16.9
AUC(0-inf) [13]: 8.12 ng·h/mL
fraction unbound [14]: 0.00443
AUC(0-t) at 2 h [15]: 302 ng·h/mL
AUC(0-t) at 2 h [16]: 150 ng·h/mL
Kp uu [17]: 2.04
AUC(0-t) at 2 h [18]: 3360 ng·h/mL
Ratio [19]: 1.47
fraction unbound [20]: 0.0279
Ratio [21]: 2.65
Kp uu [22]: 4.61
Kp uu [23]: 3.9
Kp [24]: 11.1
AUC(0-inf) [25]: 479 ng·h/mL
Compound: CNCc1cc(F)c(Cl)cc1Oc1cccc(OC)c1C

AUC(0-inf) [26]: 421 ng·h/mL
AUC(0-t) at 7 h [27]: 401 ng·h/mL
AUC(0-t) at 7 h [28]: 930 ng·h/mL
AUC(0-inf) [29]: 12900 ng·h/mL
Kp uu [30]: 1.08
Ratio [31]: 0.89
AUC(0-t) at 7 h [32]: 12500 ng·h/mL
Kp [33]: 13.4
AUC(0-inf) [34]: 958 ng·h/mL
Compound: CN(C)CCCC1(c2ccc(F)cc2)OCc2cc(C#N)ccc21 (racemic) [CITALOPRAM]

Ratio [35]: 0.22
Ratio [36]: 0.26
Kp [37]: 0.64
Kp uu [38]: 0.06
AUC(0-inf) [39]: 699 ng·h/mL
AUC(0-inf) [40]: 8.91 ng·h/mL
AUC(0-t) at 2 h [41]: 221 ng·h/mL
AUC(0-t) at 2 h [42]: 4.8 ng·h/mL
AUC(0-t) at 2 h [43]: 346 ng·h/mL
AUC(0-inf) [44]: 570 ng·h/mL
Compound: Clc1ccc2c(c1)N=C(N1CCNCC1)c1ccccc1N2 [N-DESMETHYLCLOZAPINE]
